This passage reports EC50 results from patent EP2242752B1, “[…] IMIDAZOLES AS HEPATITIS C VIRUS INHIBITORS” (Bristol-Myers Squibb Company, priority 2008, dated 2009).

The test relates to HCV 1b genotype. Briefly: HCV Replicon assay (HCV 16-377-neo replicon cells). It is filed as cell-based. The conditions noted are these: Hepatitis C virus; HCV 1b genotype replicon cells; read-out: EC50 ranges against HCV 1b. The method, boiled down:
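Inhibition measured in HCV 16-377-neo replicon cells, alongside replicon cells carrying the NS5A Y2065H resistance mutation.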
As usually defined, the EC50 is the concentration at which the effect is half-maximal. As for `COC(=O)N[C@@H](C(=O)N1CC2(CC2)C[C@H]1c1nc(-c2ccc(-c3ccc(-c4c[nH]c([C@@H]5CC6(CC6)CN5C(=O)[C@H](NC(=O)OC)c5ccccc5)n4)cc3)cc2)c[nH]1)c1ccccc1` [Example M150, dimethyl (4,4'-biphenyldiylbis(1H-imidazole-4,2-diyl(6S)-5-azaspiro[2.4]heptane-6,5-diyl((1R)-2-oxo-1-phenyl-2,1-ethanediyl)))biscarbamate], the EC50 was in the range of 0.001 to 0.999 nM. Under `COC(=O)N[C@H](C(=O)N1[C@@H](C)CC[C@H]1c1nc(-c2ccc(-c3ccc(-c4c[nH]c([C@@H]5CC[C@H](C)N5C(=O)[C@@H](NC(=O)OC)C(C)C)n4)cc3)cc2)c[nH]1)C(C)C` [Example M151, methyl ((1S)-1-(((2S,5S)-2-(4-(4'-(2-((2S,5S)-1-((2S)-2-((methoxycarbonyl)amino)-3-methylbutanoyl)-5-methyl-2-pyrrolidinyl)-1H-imidazol-4-yl)-4-biphenylyl)-1H-imidazol-2-yl)-5-methyl-1-pyrrolidinyl)carbonyl)-2-methylpropyl)carbamate] stands 0.001 to 0.999 nM; under `COC(=O)N[C@@H](C(=O)N1[C@@H](C)CC[C@H]1c1nc(-c2ccc(-c3ccc(-c4c[nH]c([C@@H]5CC[C@H](C)N5C(=O)[C@H](NC(=O)OC)c5ccccc5)n4)cc3)cc2)c[nH]1)c1ccccc1` [Example M153, dimethyl (4,4'-biphenyldiylbis(1H-imidazole-4,2-diyl((2S,5S)-5-methyl-2,1-pyrrolidinediyl)((1R)-2-oxo-1-phenyl-2,1-ethanediyl)))biscarbamate], 0.001 to 0.999 nM. Under `CC[C@H](NC(=O)OC)C(=O)N1[C@@H](C)CC[C@H]1c1nc(-c2ccc(-c3ccc(-c4c[nH]c([C@@H]5CC[C@H](C)N5C(=O)[C@H](CC)NC(=O)OC)n4)cc3)cc2)c[nH]1` [Example M154, dimethyl (4,4'-biphenyldiylbis(1H-imidazole-4,2-diyl((2S,5S)-5-methyl-2,1-pyrrolidinediyl)((2S)-1-oxo-1,2-butanediyl)))biscarbamate] stands 0.001 to 0.999 nM; under `COC(=O)NCC(=O)N1[C@@H](C)CC[C@H]1c1nc(-c2ccc(-c3ccc(-c4c[nH]c([C@@H]5CC[C@H](C)N5C(=O)CNC(=O)OC)n4)cc3)cc2)c[nH]1` [Example M155, methyl (2-((2S,5S)-2-(4-(4'-(2-((2S,5S)-1-(((methoxycarbonyl)amino)acetyl)-5-methyl-2-pyrrolidinyl)-1H-imidazol-4-yl)-4-biphenylyl)-1H-imidazol-2-yl)-5-methyl-1-pyrrolidinyl)-2-oxoethyl)carbamate], 1 to 99 nM; under `COC(=O)NC(C)(C)C(=O)N1[C@@H](C)CC[C@H]1c1ncc(-c2ccc(-c3ccc(-c4cnc([C@@H]5CC[C@H](C)N5C(=O)C(C)(C)NC(=O)OC)[nH]4)cc3)cc2)[nH]1` [Example M156, methyl (2-((2S,5S)-2-(4-(4'-(2-((2S,5S)-1-(2-((methoxycarbonyl)amino)-2-methylpropanoyl)-5-methyl-2-pyrrolidinyl)-1H-imidazol-4-yl)-4-biphenylyl)-1H-imidazol-2-yl)-5-methyl-1-pyrrolidinyl)-1,1-dimethy 1-2-oxoethyl)carbamate], 1 to 99 nM.

As for `COC(=O)N[C@@H](C)C(=O)N1[C@@H](C)CC[C@H]1c1nc(-c2ccc(-c3ccc(-c4c[nH]c([C@@H]5CC[C@H](C)N5C(=O)[C@H](C)NC(=O)OC)n4)cc3)cc2)c[nH]1` [Example M157, methyl ((1S)-2-((2S,5S)-2-(4-(4'-(2-((2S,5S)-1-(N-(methoxycarbonyl)-L-alanyl)-5-methyl-2-pyrrolidinyl)-1H-imidazol-4-yl)-4-biphenylyl)-1H-imidazol-2-yl)-5-methyl-1-pyrrolidinyl)-1-methyl-2-oxoethyl)carbamate], the EC50 fell in the range of 0.001 to 0.999 nM. In the case of `CC(C)CC(=O)N1[C@@H](C)CC[C@H]1c1nc(-c2ccc(-c3ccc(-c4c[nH]c([C@@H]5CC[C@H](C)N5C(=O)CC(C)C)n4)cc3)cc2)c[nH]1` [Example M158, 4,4'-(4,4'-biphenyldiyl)bis(2-((2S,5S)-5-methyl-1-(3-methylbutanoyl)-2-pyrrolidinyl)-1H-imidazole)], the EC50 lay within 1 to 99 nM. The result for `C[C@H]1CC[C@@H](c2nc(-c3ccc(-c4ccc(-c5c[nH]c([C@@H]6CC[C@H](C)N6C(=O)Cc6ccccc6)n5)cc4)cc3)c[nH]2)N1C(=O)Cc1ccccc1` [Example M159, 4,4'-(4,4'-biphenyldiyl)bis(2-((2S,5S)-5-methyl-1-(phenylacetyl)-2-pyrrolidinyl)-1H-imidazole)] reads 0.001 to 0.999 nM. For `CC(C)[C@@H](O)C(=O)N1[C@@H](C)CC[C@H]1c1nc(-c2ccc(-c3ccc(-c4c[nH]c([C@@H]5CC[C@H](C)N5C(=O)[C@H](O)C(C)C)n4)cc3)cc2)c[nH]1` [Example M160, (2R,2'R)-1,1'-(4,4'-biphenyldiylbis(1H-imidazole-4,2-diyl((2S,5S)-5-methyl-2,1-pyrrolidinediyl)))bis(3-methyl-1-oxo-2-butanol)], the 50% effective concentration (EC50) was in the range of 1 to 99 nM. In the case of `CC(C)[C@H](O)C(=O)N1[C@@H](C)CC[C@H]1c1nc(-c2ccc(-c3ccc(-c4c[nH]c([C@@H]5CC[C@H](C)N5C(=O)[C@@H](O)C(C)C)n4)cc3)cc2)c[nH]1` [Example M161, (2S,2'S)-1,1'-(4,4'-biphenyldiylbis(1H-imidazole-4,2-diyl((2S,5S)-5-methyl-2,1-pyrrolidinediyl)))bis(3-methyl-1-oxo-2-butanol)], the EC50 fell in the range of 1 to 99 nM. Under `CC(=O)N1[C@@H](C)CC[C@H]1c1nc(-c2ccc(-c3ccc(-c4cnc([C@@H]5CC[C@H](C)N5C(C)=O)[nH]4)cc3)cc2)c[nH]1` [Example M162, 2-((2S,5S)-1-acetyl-5-methyl-2-pyrrolidinyl)-4-(4'-(2-((2S,5S)-1-acetyl-5-methyl-2-pyrrolidinyl)-1H-imidazol-5-yl)-4-biphenylyl)-1H-imidazole] stands 1 to 99 nM.
